Measured values published in US11464750B2, “Anticancer agent and use thereof” (priority 2017, dated 2022).

Columns and labels:
Assay type in all cases: cell-based, human
p-GSK-3β (Ser^9) = assay: Western blotting, p-GSK-3β (Ser9), JeKo-1 cells; conditions: 0.5 μM, entire cell
Procedure: (§1) Specifically, first, JeKo-1 cells were cultured for 0 (control), 12, 24, and 48 hours in the presence of 0.5 μM of 3EZ,20Ac-ingenol. In addition, Panc-1 cells were cultured for 0 (control), 12, 24, and 48 hours in the presence of 3 μM of 3EZ,20Ac-ingenol.
Subsequently, abundances of GSK-3β and p-GSK-3β in the respective cells were analyzed by Western blotting using an anti-GSK-3β antibody (Cell Signaling Technology) and an anti-p-GSK-3β (Ser^9) antibody (Cell Signaling Technology). Furthermore, as a loading control, actin protein was detected using an anti-actin antibody (Sigma).

caspase 3 [1] = assay: Western blotting, activated caspase 3, JeKo-1 cells; conditions: 0.5 μM, 48 hours after treatment
Procedure: (§2) Specifically, JeKo-1 cells were cultured for 0 (control), 12, 24, and 48 hours in the presence of 0.5 μM of 3EZ,20Ac-ingenol. In addition. Panc-1 cells were cultured for 0 (control), 12, 24, and 48 hours in the presence of 3 μM of 3EZ,20Ac-ingenol. Subsequently, activation of caspase 3 in the respective cells was detected by Western blotting using an anti-activated-caspase antibody (R & D Systems). Furthermore, as a loading control, actin protein was detected using an anti-actin antibody (Sigma).

p53 protein [2] = assay: Western blotting, p53 protein, JeKo-1 cells; conditions: 0.5 μM, 12 hours until 48 hours after treatment
Procedure: (§3) Specifically, JeKo-1 cells were cultured for 0 (control), 12, 24, and 48 hours in the presence of 0.5 μM of 3EZ,20Ac-ingenol. In addition, Panc-1 cells were cultured for 0 (control), 12, 24, and 48 hours in the presence of 3 μM of 3EZ,20Ac-ingenol.
(§4) Subsequently, ATR protein, p53 protein, and phosphorylated p53 (hereinafter also referred to as “p-p53”) protein in the respective cells were respectively detected using an anti-ATR antibody (Cell Signaling Technology), an anti-p53 antibody (Santa Cruz), and an anti-p-p53 antibody (Cell Signaling Technology). Furthermore, as a loading control, actin protein was detected using an anti-actin antibody (Sigma).

caspase 3 [3] = assay: Western blotting, activated caspase 3, Panc-1 cells; conditions: 3 μM, 12 hours after treatment
Procedure: as §2

cyclin D1 = assay: Western blotting, cyclin D1, BALL-1 cells; conditions: 0.5 μM
Procedure: Specifically, BALL-1 cells were cultured for 12, 24, and 48 hours in the presence of 3EZ,20Ac-ingenol at a final concentration of 0.5 μM, and abundances of cyclin D1 in the nuclear fraction and the cytoplasm fraction were analyzed by Western blotting. In addition, cells cultured in the absence of 3EZ,20Ac-ingenol were used as controls.
Whether transfer of cyclin D1 from the nucleus to the cytoplasm is ATR-dependent and PTEN-dependent was examined using siRNA against ATR and siRNA against PTEN. First, siRNA against ATR (“ON-TARGET Plus Human ATR (545) siRNA-SMARTpool,” GE Dharmacon), siRNA against PTEN (“ON-TARGET Plus Human PTEN (5728) siRNA-SMARTpool,” GE Dharmacon), and control siRNA (“ON-TARGET Plus Nontargeting pool,” GE Dharmacon) were respectively introduced into BALL-1 cells at a final concentration of 50 nM, and incubated for 48 hours.
Subsequently, a cell medium was replaced with a new medium containing 3EZ,20Ac-ingenol at a final concentration of 0.5 μM, and culturing was performed for 24 and 48 hours. Subsequently, abundances of cyclin D1 in the nuclear fraction and the cytoplasm fraction were analyzed by Western blotting using an anti-cyclin-D1 antibody (Santa Cruz).

[4] = tested on: phosphorylated Akt (Ser^473); assay: Western blotting, p-Akt (Ser473), TKG0377 cells; conditions: 0.5 μM
Procedure: The effect of 3EZ,20Ac-ingenol treatment on a PI3K/Akt signaling pathway was examined. Specifically, BALL-1 cells, TKG0210 cells, and TKG0377 cells were cultured for 48 hours in the presence of 3EZ,20Ac-ingenol at a final concentration of 0.5 μM, and by Western blotting using an anti-p-Akt (Ser^473) antibody (Cell Signaling Technology), phosphorylation of the 473th serine residue of an Akt protein in respective fractions of the entire cell, a nucleus, and a cytoplasm was analyzed. In addition, cells cultured in the absence of 3EZ,20Ac-ingenol were used as controls.
BALL-1 cells, TKG0210 cells, and TKG0377 cells were cultured for 24 and 48 hours in the presence of 3EZ,20Ac-ingenol at a final concentration of 0.5 μM, and abundances of p-Akt in the nuclear fraction and the cytoplasm fraction were analyzed by Western blotting. In addition, respective cells cultured in the absence of 3FZ,20Ac-ingenol were used as controls.

p-Akt (Ser^473) = assay: Western blotting, p-Akt, JeKo-1 cells; conditions: 0.5 μM
Procedure: as §1
Subsequently, by Western blotting using an anti-Akt antibody (Cell Signaling Technology) and an anti-p-Akt (Ser^473) antibody (Cell Signaling Technology), abundances of total amounts of Akt protein and p-Akt in the entire cell fractions, nuclear fractions, and cytoplasm fractions of the respective cells were analyzed. Furthermore, as a loading control, actin protein was detected using an anti-actin antibody (Sigma).

[5] = tested on: p-PTEN (Ser^380/Thr^382/383); assay: Western blotting, p-PTEN, BALL-1 cells; conditions: 0.5 μM, 3 to 48 hours, entire cell fraction
Procedure: The effect of 3EZ,20Ac-ingenol treatment on PTEN, p-PTEN, and p-Akt of BALL-1 cells was examined. First, BALL-1 cells were cultured for 3, 6, 12, 24, and 48 hours in the presence of 3EZ,20Ac-ingenol at a final concentration of 0.5 μM, and by Western blotting using an anti-PTEN antibody (Santa Cruz), an anti-p-PTEN (Ser^380/Thr^382/383) antibody (Santa Cruz), and an anti-p-Akt (Ser^473) antibody (Cell Signaling Technology), abundances of PTEN, p-PTEN, and p-Akt in the entire cell fraction were analyzed. In addition, cells cultured in the absence of 3EZ,20Ac-ingenol were used as controls.

p53 protein [6] = assay: Western blotting, p53 protein, Panc-1 cells; conditions: 3 μM, 12 hours until 48 hours after treatment
Procedure: as §3, §4

CCCCC/C=C\C=C\C(=O)O[C@H]1C(C)=C[C@]23C(=O)[C@@H](C=C(COC(C)=O)[C@@H](O)[C@]12O)[C@H]1[C@@H](C[C@H]3C)C1(C)C [3EZ,20Ac-ingenol, 3-O-(2′E,4′Z-decadienoyl)-20-O-acetylingenol]
p-GSK-3β (an inactive type) (p-GSK-3β (Ser^9)): a decrease in p-GSK-3β (an inactive type) was observed | activation of caspase 3 (caspase 3 [1]): activation of caspase 3 was observed | expression level of p53 protein (p53 protein [2]): an increase in expression level of p53 protein was recognized | activation of caspase 3 (caspase 3 [3]): activation of caspase 3 was observed | abundance of cyclin D1 (cyclin D1; cytoplasm fraction, 12 hours and 24 hours): increased | abundance of cyclin D1 (cyclin D1; cytoplasm fraction, after 48 hours): decreased again | abundance of cyclin D1 (cyclin D1; nuclear fraction, 24 hours): a decrease in abundance of cyclin D1 was observed | abundance of cyclin D1 (cyclin D1; siRNA against ATR introduced, cytoplasm fraction, 24 hours): abundances of cyclin D1 in the cytoplasm fractions increased | abundance of cyclin D1 (cyclin D1; siRNA against ATR introduced, cytoplasm fraction, 48 hours): abundances of cyclin D1 in the cytoplasm fractions decreased again | abundance of cyclin D1 (cyclin D1; siRNA against ATR introduced, nuclear fraction, 24 and 48 hours): an abundance of cyclin D1 was large | abundance of cyclin D1 (cyclin D1; siRNA against PTEN introduced, cytoplasm fraction, 24 hours): abundances of cyclin D1 in the cytoplasm fractions increased | abundance of cyclin D1 (cyclin D1; siRNA against PTEN introduced, cytoplasm fraction, 48 hours): abundances of cyclin D1 in the cytoplasm fractions decreased again | abundance of cyclin D1 (cyclin D1; siRNA against PTEN introduced, nuclear fraction, 24 and 48 hours): an abundance of cyclin D1 was large | abundance of p-Akt ([4]; 24 and 48 hours, cytoplasm fraction and nuclear fraction): no decrease in abundance of p-Akt was observed | abundance of p-Akt ([4]; 48 hours, cytoplasm fraction): remained almost unchanged | abundance of p-Akt ([4]; 48 hours, nuclear fraction): increased | abundance of p-Akt (p-Akt (Ser^473); cytoplasm fraction, 12 to 48 hours): a decrease in abundance of p-Akt was clearly recognized | abundance of p-Akt (p-Akt (Ser^473); entire cell fraction): a slight decrease in abundance of p-Akt was observed | abundance of p-Akt (p-Akt (Ser^473); nuclear fraction): no change in an abundance of p-Akt was recognized | abundance of p-PTEN [5]: an abundance of p-PTEN increased | expression level of p53 protein (p53 protein [6]): an increase in expression level of p53 protein was recognized
